What was measured:
Assay type in all cases: cell-based
[1] = test system: transcription factor TEAD; assay: Activity inhibition test of transcription factor TEAD (ONE-Glo Luciferase assay, Hippo Pathway TEAD reporter-MCF7 recombinant cell line); details: Homo sapiens; TEAD Reporter-MCF7 cells, 24 hours treatment, luciferase luminescence
Procedure: The transcription factor TEAD activity of the compounds prepared in the Examples was measured by the ONE-Glo™ Luciferase assay (Promega, Catalog #E6110) method using the Hippo Pathway TEAD reporter-MCF7 recombinant cell line (BPS Bioscience, Catalog #60618). Specifically, the TEAD Reporter-MCF7 cell line contains the firefly luciferase gene whose expression is regulated under the control of TEAD response elements in the MCF7, which is a human breast cancer cell line. In the cell line, a non-phosphorylated YAP/TAZ exists in the nucleus in a non-stressed condition, which continuously induces expression of the luciferase reporter. TEAD Reporter-MCF7 cells were prepared in 100 µL of cell culture medium (MEM medium, 10% FBS, 1% P/S, 400 µg/mL Geneticin, 1% […], 1 mM NA pyruvate, 10 µg/mL Insulin) in a white clear bottom 96-well microplate. The prepared plate was incubated in a 5% CO2 incubator at 37°C for 24 hours, and then the previously prepared compounds of Examples were finally treated at concentrations of 0.0005, 0.005, 0.05, 0.5 and 5 µM, which were repeated three times for all treatment solutions. The plates treated with the compounds of Examples were incubated in a 5% CO2 incubator at 37°C for 24 hours. 100 µL/well of the substrate aqueous solution containing luciferin was added to a white clear-bottom 96 well microplate, thereby initiating an enzyme reaction. The reaction was performed at room temperature for 5 minutes, and the luminescence (integration time 1000 ms) was measured using a Flexstation3 multi-mode microplate reader. In accordance with the instructions for the ONE-Glo™ Luciferase Assay, the luciferase enzyme activity, which represents the activity of the transcription factor TEAD, was measured by a chemiluminescence method, and the inhibitory activity of the compound according to the present disclosure was calculated. The results of each compound were analyzed using Microsoft Excel, and the IC50 values were calculated by GraphPad Prism software.

[2] = test system: NCI-H226; assay: Cell growth inhibition test (CellTiter-Glo Luminescent Cell Viability), NCI-H226; details: Homo sapiens; NCI-H226 cells, CellTiter-Glo; read-out: growth IC50 H226
Procedure: (§1) The cell growth for the compounds prepared in Examples was measured by CellTiter-Glo® Luminescednt Cell Viability (Promega, Catalog #G7571) method using NCI-H226 (addexbio), NCI-H28 (Korea Cell Line Bank) cell lines. This evaluation method is a method in which when luciferase enzyme is activated by ATP flowing out from living cells, it reacts with a luciferin substrate, and the enzyme activity at this time is measured to confirm cell viability.
(§2) Specifically, NCI-H226, and NCI-H28 cells were prepared in 100 µL of cell culture medium (RPMI medium, 10% FBS, 1% P/S, 4.5 g/L D-Glucose, 2.383 g/L HEPES Buffer, L-Glutamine, 1.5 g/L Sodium Bicarbonate, 110 mg/L Sodium pyruvate) in a white clear bottom 96-well microplate. The prepared plate was incubated in a 5% CO2 incubator at 37°C for 24 hours, and then the previously prepared compounds of Examples were finally treated at concentrations of 0.0005, 0.005, 0.05, 0.5 and 5 µM, which was repeated three times for all treatment solutions. The plates treated with the compounds of Examples were incubated in a 5% CO2 incubator at 37°C. 100 µL/well of the substrate aqueous solution containing luciferin was added to a white clear-bottom 96 well microplate, thereby initiating an enzyme reaction. The reaction was performed at room temperature in the dark for 10 minutes, and the luminescence was measured using a Flexstation3 multi-mode microplate reader. In accordance with the instructions for the CellTiter-Glo™ Luminescednt Cell Viability, the luciferase enzyme activity, which represents the amount of ATP, was measured by a chemiluminescence method, and the inhibitory activity of the compounds according to the present disclosure was calculated. The results of each compound were analyzed using Microsoft Excel, and the IC50 values were calculated using GraphPad Prism software.

[3] = test system: NCI-H28; assay: Cell growth inhibition test (CellTiter-Glo Luminescent Cell Viability), NCI-H28; details: Homo sapiens; NCI-H28 cells, CellTiter-Glo; read-out: growth IC50 H28
Procedure: as §1, §2

Compound | IC50 [1] [nM] | IC50 [2] [nM] | IC50 [3] [nM]
C=CC(=O)N1CCc2c(ccc(Nc3cc(Cl)cc(Cl)c3)c2-c2cn(C)cn2)C1 [Example 21, 1-(6-((3,5-dichlorophenyl)amino)-5-(1-methyl-1H-imidazol-4-yl)-3,4-dihydroisoquinolin-2(1H)-yl)prop-2-en-1-one] | 90.2 | 95 | > 5000
C=CC(=O)N1CCc2c(ccc(Nc3ccc(C(F)(F)F)cc3)c2-c2cn(CC)cn2)C1 [Example 24, 1-(5-(1-ethyl-1H-imidazol-4-yl)-6-((4-(trifluoromethyl)phenyl)amino)-3,4-dihydroisoquinolin-2(1H)-yl)prop-2-en-1-one] | 15.4 | 80 | > 5000

From patent EP4786465A1, “NOVEL COMPOUND, AND PHARMACEUTICAL COMPOSITION FOR PREVENTION OR TREATMENT OF CANCER OR TUMORS COMPRISING SAME” (Daewoong Pharmaceutical Co., Ltd., priority 2023, dated 2025)
